For 62 compounds, IC50 results are on record in US20240262806A1, “INHIBITORS OF NLRP3” (PTC THERAPEUTICS, INC., priority 2021, published 2024).

pIC50: −log10 of the molar value.

The test deals with NLRP3 inflammasome. As to the kind of experiment: IL-1β Secretion Assay (NLRP3-dependent IL-1β secretion in PMA-differentiated THP-1 cells, nigericin activation, HTRF). The test is classed as cell-based. Conditions: Homo sapiens, THP-1, THP-1 cells, 100 ng/mL PMA 24 h, compound 20 h, 2.5 μM Nigericin 3 h; read-out: IC50 IL-1β Inhibition. Summed up: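 PMA-differentiated THP-1 cells in RPMI with 5% FBS were treated with compounds at 7 concentrations in threefold DMSO dilutions. NLRP3 was activated with nigericin and secreted IL-1β measured by HTRF. IC50 from a logistic fit of percent inhibition versus concentration.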
As for `CN1CCCC(Cc2nnc(-c3ccc(C(F)(F)F)cc3O)c3ccncc23)C1` (centres unmarked) [Compound I-567], the negative-log IC50 (pIC50) was 7.00 to 8.00.

For the compound `COC(C)(C)CNc1nnc(-c2ccc(C(F)(F)F)cc2OC(F)F)c2cccn12` [Compound I-568], the pIC50 was 8.00 to 9.00.

As to `Cc1cc(O)c(-c2nnc(N[C@@H]3CCCN(C(C)C)C3)n3cccc23)c(F)c1` [Compound I-569], the pIC50 was above 9.00.

Consider `Cc1cc(O)c(-c2nnc(N[C@@H]3CCCN(CC(F)(F)F)C3)n3cccc23)c(F)c1` [Compound I-570], for which the pIC50 is 8.00 to 9.00.

In the case of `CCN1C[C@H](F)C[C@@H](Nc2nnc(-c3c(O)cc(C)cc3F)c3cccn23)C1` [Compound I-571], the negative-log IC50 (pIC50) is above 9.00.

`C[C@]1(O)C[C@@H](Nc2nnc(-c3ccc(OC(F)F)cc3OC(F)F)c3cccn23)C1` [Compound I-573]: the pIC50 is 7.00 to 8.00.

For the compound `CCN1CCC[C@@H](Nc2nnc(-c3ccc(C(F)(F)F)cc3OC(F)F)c3cncn23)C1` [Compound I-574, (R)-1-(2-(Difluoromethoxy)-4-(trifluoromethyl)phenyl)-N-(1-ethylpiperidin-3-yl)imidazo[1,5-d][1,2,4]triazin-4-amine], the negative-log IC50 (pIC50) is above 9.00.

Take `Oc1cc(C(F)(F)F)ccc1-c1nnc(N[C@H]2CNC[C@@H](F)C2)n2cccc12` [Compound I-575]: the negative-log IC50 (pIC50) is 6.52 to 7.00.

With `CCN1C[C@H](F)C[C@@H](Nc2nnc(-c3c(O)cc(C4CC4)cc3F)c3cccn23)C1` [Compound I-576], the pIC50 was above 9.00.

Regarding `C[C@H](O)CNc1nnc(-c2c(O)cc(Cl)cc2F)c2cccn12` [Compound I-577], the pIC50 was 7.00 to 8.00.

As to `Oc1cc(Cl)ccc1-c1nnc(N[C@@H]2CCC[C@H](O)C2)n2cncc12` [Compound I-578], the pIC50 was above 9.00.

As to `CCN1CCC[C@@H](Nc2nnc(-c3c(O)cc(Cl)cc3F)c3cc(C)nn23)C1` [Compound I-579], the pIC50 was above 9.00.

In the case of `Oc1cc(Cl)ccc1-c1nnc(N[C@H]2CCOC2)n2cncc12` [Compound I-580], the pIC50 is 8.00 to 9.00.

`CO[C@H]1CCC[C@@H](Nc2nnc(-c3ccc(Cl)cc3O)c3cncn23)C1` [Compound I-581]: the negative logarithm of the IC50 (pIC50) is 8.00 to 9.00.

As for `CCN1CCC[C@H]1CNc1nnc(-c2c(O)cc(C)cc2F)c2cccn12` [Compound I-582], the pIC50 was 8.00 to 9.00.

Turning to `CCN1CCC[C@H]1CNc1nnc(-c2c(O)cc(C3CC3)cc2F)c2cccn12` [Compound I-583], the pIC50 is 8.00 to 9.00.

On to `CCN1CCC[C@@H](Nc2nnc(-c3ccc(OC(F)(F)F)cc3O)c3cc(C)nn23)C1` [Compound I-584], for which the pIC50 is above 9.00.

In the case of `C[C@@H](O)CNc1nnc(-c2ccc(C3CC3)cc2O)c2cccn12` [Compound I-586], the negative logarithm of the IC50 (pIC50) was 6.52 to 7.00.

As to `COc1ccc(-c2nnc(NC[C@@H](C)O)n3cccc23)c(O)c1` [Compound I-587], the pIC50 is 7.00 to 8.00.

Turning to `C[C@@H](O)CNc1nnc(-c2ccc(C(F)(F)F)cc2O)c2cccn12` [Compound I-588], the pIC50 was 7.00 to 8.00.

As to `Cc1cc2c(-c3ccc(C(F)(F)F)cc3OC(F)F)nnc(N[C@@H]3CCCN(C)C3)n2c1` [Compound I-591], the negative-log IC50 (pIC50) was 8.00 to 9.00.

As to `CC(C)N1CCC[C@@H](Nc2nnc(-c3ccc(C(F)(F)F)cc3OC(F)F)c3c(F)ccn23)C1` [Compound I-592], the negative logarithm of the IC50 (pIC50) is above 9.00.

Regarding `C[C@]1(O)C[C@@H](Nc2nnc(-c3ccc(C(F)(F)F)cc3O)c3c(F)ccn23)C1` [Compound I-593], the negative-log IC50 (pIC50) is 8.00 to 9.00.

Regarding `C[C@H](O)CNc1nnc(-c2ccc(C(F)(F)F)cc2O)c2c(F)ccn12` [Compound I-595], the pIC50 was 7.00 to 8.00.

In the case of `CN1C[C@H](F)C[C@@H](Nc2nnc(-c3ccc(C(F)(F)F)cc3O)c3c(F)ccn23)C1` [Compound I-596], the pIC50 is 8.00 to 9.00.

For `CN1C[C@H](O)C[C@@H](Nc2nnc(-c3ccc(C(F)(F)F)cc3O)c3c(F)ccn23)C1` [Compound I-597], the pIC50 was 7.00 to 8.00.

For `CCN1C[C@H](F)C[C@@H](Nc2nnc(-c3ccc(OC(F)(F)F)cc3O)c3c(F)ccn23)C1` [Compound I-598], the pIC50 is 8.00 to 9.00.

As to `CN1CCC[C@@H](Nc2nnc(-c3ccc(C4CC4)cc3O)c3c(F)ccn23)C1` [Compound I-599], the negative logarithm of the IC50 (pIC50) was 8.00 to 9.00.

In the case of `CCN1CCC[C@@H](Nc2nnc(-c3ccc(C4CC4)cc3O)c3c(F)ccn23)C1` [Compound I-600], the negative-log IC50 (pIC50) was above 9.00.

Regarding `CN1CCC[C@@H](Nc2nnc(-c3c(O)cc(C4CC4)cc3F)c3c(F)ccn23)C1` [Compound I-601], the negative-log IC50 (pIC50) is above 9.00.

With `CCN1CCC[C@@H](Nc2nnc(-c3c(O)cc(C4CC4)cc3F)c3c(F)ccn23)C1` [Compound I-602], the pIC50 was above 9.00.

Turning to `CCN1C[C@H](O)C[C@@H](Nc2nnc(-c3ccc(C(F)(F)F)cc3OC(F)F)c3c(F)ccn23)C1` [Compound I-603], the negative logarithm of the IC50 (pIC50) is 6.52 to 7.00.

Take `CCN1CCC[C@@H](Nc2nnc(-c3ccc(OC(F)(F)F)cc3O)c3c(F)ccn23)C1` [Compound I-604]: the pIC50 was 8.00 to 9.00.

As for `CCN1C[C@H](O)C[C@@H](Nc2nnc(-c3ccc(OC(F)(F)F)cc3O)c3c(F)ccn23)C1` [Compound I-605], the negative logarithm of the IC50 (pIC50) is 6.52 to 7.00.

With `CCN1CCC[C@@H](Nc2nnc(-c3c(C)cc(C(F)(F)F)cc3O)c3cccn23)C1` [Compound I-606], the pIC50 was above 9.00.

With `Cc1cc2c(-c3c(O)cc(C(F)(F)F)cc3F)nnc(N[C@@H]3CCCN(C)C3)n2c1` [Compound I-607], the pIC50 is above 9.00.

Turning to `Oc1cc(Cl)cc(F)c1-c1nnc(NC2CCCOC2)n2cccc12` (centres unmarked) [Compound I-608], the pIC50 was 7.00 to 8.00.

On to `CCN1CCC[C@@H](Nc2nnc(-c3ccc(OC(F)(F)F)cc3O)c3cccn23)C1` [Compound I-609], for which the pIC50 was 8.00 to 9.00.

As for `FC(F)Oc1cc(C(F)(F)F)ccc1-c1nnc(NC[C@@H]2CCCO2)n2cccc12` [Compound I-610], the pIC50 is 7.00 to 8.00.

`FC(F)Oc1cc(C(F)(F)F)ccc1-c1nnc(NC[C@H]2CCCO2)n2cccc12` [Compound I-611]: the negative logarithm of the IC50 (pIC50) is 7.00 to 8.00.

In the case of `CN1CCC[C@@H](Nc2nnc(-c3ccc(OC(F)F)cc3OC(F)F)c3cccn23)C1` [Compound I-612], the negative logarithm of the IC50 (pIC50) is 8.00 to 9.00.

As to `CCN1CCC[C@@H](Nc2nnc(-c3ccc(OC(F)F)cc3OC(F)F)c3cccn23)C1` [Compound I-613], the negative logarithm of the IC50 (pIC50) was 8.00 to 9.00.

For `OCCN1CCC[C@@H](Nc2nnc(-c3ccc(OC(F)F)cc3OC(F)F)c3cccn23)C1` [Compound I-614], the pIC50 was 8.00 to 9.00.

Consider `CN1C[C@H](F)C[C@@H](Nc2nnc(-c3ccc(OC(F)F)cc3OC(F)F)c3cccn23)C1` [Compound I-615], for which the negative logarithm of the IC50 (pIC50) was 7.00 to 8.00.

Take `CCN1CCC[C@@H](Nc2nnc(-c3c(O)cc(OC(F)F)cc3F)c3cccn23)C1` [Compound I-616]: the negative-log IC50 (pIC50) was above 9.00.

Regarding `CN1C[C@H](F)C[C@@H](Nc2nnc(-c3c(O)cc(OC(F)F)cc3F)c3cccn23)C1` [Compound I-617], the negative logarithm of the IC50 (pIC50) was 8.00 to 9.00.

For `C[C@]1(O)C[C@@H](Nc2nnc(-c3c(O)cc(OC(F)F)cc3F)c3cccn23)C1` [Compound I-618], the negative-log IC50 (pIC50) was 7.00 to 8.00.

As for `CCN1C[C@H](F)C[C@@H](Nc2nnc(-c3c(O)cc(Cl)cc3F)c3cccn23)C1` [Compound I-620], the pIC50 was 8.00 to 9.00.

With `Oc1cc(Cl)cc(F)c1-c1nnc(NCC2CCCO2)n2cccc12` (centres unmarked) [Compound I-621], the negative-log IC50 (pIC50) was 7.00 to 8.00.

Turning to `OCCN1CCC[C@@H](Nc2nnc(-c3ccc(Br)cc3O)c3cncn23)C1` [Compound I-623], the pIC50 was above 9.00.

As for `CN1CCC[C@@H](Nc2nnc(-c3ccc(C(F)(F)F)cc3OC(F)F)c3cncn23)C1` [Compound I-624], the pIC50 was 8.00 to 9.00.

On to `CN1C[C@H](F)C[C@@H](Nc2nnc(-c3ccc(C(F)(F)F)cc3OC(F)F)c3cncn23)C1` [Compound I-625], for which the negative-log IC50 (pIC50) was 7.00 to 8.00.

Take `CCN1CCC[C@@H](Nc2nnc(-c3c(O)cc(C)cc3F)c3cncn23)C1` [Compound I-626]: the pIC50 is above 9.00.

`C[C@]1(O)C[C@@H](Nc2nnc(-c3ccc(Br)cc3O)c3cncn23)C1` [Compound I-627]: the negative logarithm of the IC50 (pIC50) is 8.00 to 9.00.

On to `CCN1CCC[C@@H](Nc2nnc(-c3ccc(Br)cc3O)c3cncn23)C1` [Compound I-628], for which the negative logarithm of the IC50 (pIC50) was above 9.00.

As for `CCOc1cc(O)c(-c2nnc(N[C@H]3C[C@@](C)(O)C3)n3cccc23)c(F)c1` [Compound I-629], the negative logarithm of the IC50 (pIC50) is 7.00 to 8.00.

Regarding `CCOc1cc(O)c(-c2nnc(N[C@@H]3CCCN(C)C3)n3cccc23)c(F)c1` [Compound I-630], the pIC50 was 8.00 to 9.00.

Consider `CCOc1cc(O)c(-c2nnc(N[C@@H]3C[C@@H](F)CN(C)C3)n3cccc23)c(F)c1` [Compound I-631], for which the pIC50 was 7.00 to 8.00.

For `CCN1CCC[C@@H](Nc2nnc(-c3ccc(OC)cc3O)c3ccnn23)C1` [Compound I-632], the pIC50 is 8.00 to 9.00.

For `CCN1CCC[C@@H](Nc2nnc(-c3ccc(C)cc3O)c3ccnn23)C1` [Compound I-633], the negative-log IC50 (pIC50) was 8.00 to 9.00.

For `COc1ccc(-c2nnc(N[C@@H]3CCCN(C)C3)n3nccc23)c(O)c1` [Compound I-634, (R)-5-Methoxy-2-(7-((1-methylpiperidin-3-yl)amino)pyrazolo[1,5-d][1,2,4]triazin-4-yl)phenol], the pIC50 was 7.00 to 8.00.

Turning to `CCN1CCC[C@@H](Nc2nnc(-c3c(C)cc(C)cc3O)c3cccn23)C1` [Compound I-636], the pIC50 is above 9.00.
